Read-outs that look alike come from different tables or passages of the source.
Assay: pKa determination from absorbance or reflectance spectra vs. pH (four parameter sigmoid fit)
Assay type: physicochemical
Settings: 25°C, 0.9% NaCl
Description: Preferred embodiments of the Invention are illustrated by the following examples. In all cases pKa values of the indicators were obtained at 25°C and constant ionic strength (0.9% NaCl, with buffers at 0.01 M). Absorbance or reflectance spectra of the dyed substrates were taken using a Shimadzu UV-VIS-NIR spectrophotometer model 3101PC or an Ocean Optics PC1000 optical fibre spectrophotometer. pKa data were obtained by plotting the function λb-λ850nm/λa-λ850nm vs. pH, where λb is the absorbance or reflectance at the absorption maximum of the basic form of the indicator dye, λa is absorbance or reflectance at the absorption maximum of the acid form of the indicator dye and λ850nm is the absorption or reflectance at 850 nm. The plots were analysed by fitting the data with the four parameter sigmoid function, f = (a - d)/[1 + (x/c)^b] + d, where a is the asymptotic maximum, b is the slope, c is the pH at inflection or pKa and d is the asymptotic minimum. The fitting was performed using the Marquardt-Levenberg nonlinear least-squares method.

[1] = immobilised by Mannich reaction in Biodyne B nylon 6,6 membrane

SMILES | pKa [1] | solution pKa (indicator in solution) | pKa (immobilised by Mannich reaction in Biodyne A nylon 6,6 membrane) | pKa (immobilised by Mannich reaction on LoProdyne nylon 6,6 membrane modified with 1,6-diaminohexane) | pKa (indicator in solution, read-out: solution pKa)
O=[N+]([O-])c1ccc(N=Nc2c(S(=O)(=O)[O-])cc(O)c3ccc(S(=O)(=O)[O-])cc23)c([N+](=O)[O-])c1.[Na+].[Na+] [nitrazine yellow, 4-(2',4'-dinitrophenylazo)-1-hydroxynaphthalene-3,6-disulfonic acid disodium salt] | 5.41 | 6.60 |  |  | 
O=S1(=O)OC(c2ccc(O)cc2)(c2ccc(O)cc2)c2ccccc21 [phenol red] | 8.68 |  | 9.64 | 9.86 | 8

— patent publication EP1213583A1, “General method for the covalent immobilisation of indicators in, or onto a support useful for the fabrication of optical sensors” (Innosense S.r.l., priority 2000, dated 2002)
